According to publication PMC4481867 (Bioorganic & medicinal chemistry letters, 2012):

Test: Solubility
Type: physicochemical
Details: precipitation at higher concentrations in the assay

solubility: poor solubility
SMILES: O=C(Nc1ccc(-c2ccccc2)cc1)Nc1ccc(-c2ccnc3[nH]cnc23)cc1 [Compound 17]
